Consider two compounds from patent US9296703B2, “Substituted N-(3-(pyrimidin-4-yl)phenyl)acrylamide analogs as tyrosine receptor kinase BTK inhibitors” (University of Utah Research Foundation, priority 2012, dated 2016).

The test concerns the target recombinant full-length human BTK kinase (Homo sapiens (Human), UniProt Q06187). Briefly: BTK kinase assay: ADP generation assay (ADP-Glo). Type of test: biochemical. The note with it: 60 nM BTK, 1.6 μM ATP, 20 μM MBP substrate, 60 min at room temperature. Here is the method: The primary assay for compound inhibitory activity was the ADP generation assay described herein. Test compounds were diluted to desired concentrations in kinase reaction buffer and briefly incubated with recombinant full-length human BTK kinase with a (His)6 tag (81.3 kDa; Invitrogen Corporation, Carlsbad, Calif.). The assay as described is based on volumes used in a standard 384 well format using solid, white-wall plates. The reaction was subsequently initiated by the addition of ATP and myelin basic protein (MBP) substrate (Millipore Corporation, Waltham, Mass.). Composition of the assay reaction mixture ([…]) was: 5% v/v DMSO, 60 nM BTK, 1.6 μM ATP, and 20 μM MBP substrate. […] Luminescence was measured on an EnVision® microplate reader (PerkinElmer). The amount of luminescence from each reaction is directly correlated with BTK kinase activity. Percent inhibition and IC50 values were calculated by comparing enzyme activity in drug-treated wells to the appropriate controls.
IC50 values are determined using GraphPad Prism 5 software. […]
Activity (IC50) was determined in the BTK assays describe herein above, i.e. either the ADP generation assay and/or the time-resolved FRET assay, and the data are shown in Table III. […]

Each structure is given as a SMILES string.

Chain of recombinant full-length human BTK kinase (Q06187 whole entry): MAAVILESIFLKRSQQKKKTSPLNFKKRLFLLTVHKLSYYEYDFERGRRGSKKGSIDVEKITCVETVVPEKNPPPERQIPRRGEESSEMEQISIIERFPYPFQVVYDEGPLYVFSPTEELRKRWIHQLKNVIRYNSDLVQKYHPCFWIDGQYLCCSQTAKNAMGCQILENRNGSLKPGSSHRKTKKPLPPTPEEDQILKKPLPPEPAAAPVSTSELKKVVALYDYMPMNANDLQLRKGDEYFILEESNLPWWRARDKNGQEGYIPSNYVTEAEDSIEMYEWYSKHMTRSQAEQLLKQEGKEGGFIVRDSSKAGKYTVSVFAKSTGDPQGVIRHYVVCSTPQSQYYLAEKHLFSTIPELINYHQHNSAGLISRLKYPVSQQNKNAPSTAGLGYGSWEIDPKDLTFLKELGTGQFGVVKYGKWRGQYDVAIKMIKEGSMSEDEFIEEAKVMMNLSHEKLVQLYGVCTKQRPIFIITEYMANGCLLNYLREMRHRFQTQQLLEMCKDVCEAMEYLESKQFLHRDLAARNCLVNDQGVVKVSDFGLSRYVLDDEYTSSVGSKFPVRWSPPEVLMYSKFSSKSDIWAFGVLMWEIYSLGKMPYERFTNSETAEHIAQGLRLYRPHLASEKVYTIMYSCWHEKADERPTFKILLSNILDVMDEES

What is called IC50 is the point on the concentration scale where inhibition reaches its midpoint. `C=CC(=O)Nc1cccc(-c2nc(Nc3ccc(N4CCOCC4)c(O)c3)ncc2Cl)c1` [Compound 1, N-(3-(5-chloro-2-((3-hydroxy-4-morpholinophenyl)amino)pyrimidin-4-yl)phenyl)acrylamide]: the IC50 was determined as 0.004 µM.
On to `C=CC(=O)Nc1cccc(-c2nc(Nc3ccc(N4CCOCC4)c(OP(=O)(OC(C)C)OC(C)C)c3)ncc2Cl)c1` [Compound 2, 5-((4-(3-acrylamidophenyl)-5-chloropyrimidin-2-yl)amino)-2 - morpholinophenyl diisopropyl phosphate], for which the half-maximal inhibitory concentration (IC50) was found to be 3.58 µM.
